Laboratory results as given in patent publication US20090069320A1, “Substituted 4-Amino-Quinazoline Compounds with Metabotropic Glutamate Receptor Regulating Activity and Uses Thereof” (Gruenenthal GmbH, priority 2006, published 2009).

target: T1, mGluR5 receptor (Sus scrofa, UniProt I3LUI7); test: [3H]-MPEP mGluR5 receptor binding assay (pig brain homogenate); details: 10 μM compound, 5 nM [3H]-MPEP
T1 construct: 450 μg of protein from brain homogenate with 5 nM ^3[H]-MPEP; from tissue; host or cells: pig brain halves without medulla, cerebellum and pons
T1 sequence (I3LUI7 19-1212): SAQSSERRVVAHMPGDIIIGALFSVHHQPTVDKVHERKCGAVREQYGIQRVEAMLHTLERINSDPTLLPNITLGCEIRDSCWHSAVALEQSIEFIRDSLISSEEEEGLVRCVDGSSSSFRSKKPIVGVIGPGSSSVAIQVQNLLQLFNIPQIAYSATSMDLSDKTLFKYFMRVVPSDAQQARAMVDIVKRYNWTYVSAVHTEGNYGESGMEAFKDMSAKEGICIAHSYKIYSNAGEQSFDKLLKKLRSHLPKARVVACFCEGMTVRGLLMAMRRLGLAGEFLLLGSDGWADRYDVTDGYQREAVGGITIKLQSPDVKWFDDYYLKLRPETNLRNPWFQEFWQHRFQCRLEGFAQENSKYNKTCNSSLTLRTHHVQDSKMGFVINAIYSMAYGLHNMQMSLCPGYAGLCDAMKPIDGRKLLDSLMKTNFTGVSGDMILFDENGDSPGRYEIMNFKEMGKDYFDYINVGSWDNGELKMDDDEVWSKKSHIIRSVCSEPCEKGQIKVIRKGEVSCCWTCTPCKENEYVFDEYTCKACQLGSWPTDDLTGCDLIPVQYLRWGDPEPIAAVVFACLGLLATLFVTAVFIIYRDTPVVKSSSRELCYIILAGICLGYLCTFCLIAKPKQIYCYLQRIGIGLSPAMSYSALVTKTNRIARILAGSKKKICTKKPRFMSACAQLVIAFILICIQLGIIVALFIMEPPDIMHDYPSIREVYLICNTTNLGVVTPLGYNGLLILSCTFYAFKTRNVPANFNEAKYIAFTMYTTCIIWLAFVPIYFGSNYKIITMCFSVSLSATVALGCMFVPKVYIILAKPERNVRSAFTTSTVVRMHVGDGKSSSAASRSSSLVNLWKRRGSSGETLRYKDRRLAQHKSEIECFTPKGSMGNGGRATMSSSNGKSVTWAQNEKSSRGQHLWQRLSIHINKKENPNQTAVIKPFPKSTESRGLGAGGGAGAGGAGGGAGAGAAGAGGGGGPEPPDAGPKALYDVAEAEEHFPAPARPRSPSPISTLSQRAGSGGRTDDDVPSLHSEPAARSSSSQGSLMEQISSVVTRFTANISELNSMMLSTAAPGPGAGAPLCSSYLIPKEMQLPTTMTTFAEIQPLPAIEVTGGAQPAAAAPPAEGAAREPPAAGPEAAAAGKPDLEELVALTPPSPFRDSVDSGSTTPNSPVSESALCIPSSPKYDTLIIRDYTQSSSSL
Outline: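 Radioligand displacement of 5 nM [3H]-MPEP from pig brain homogenate (450 μg protein; medulla, cerebellum and pons removed) in 20 mM Hepes pH 8.0. Compounds were tested at 10 μM, incubated 60 min at room temperature, then filtered and counted by scintillation. Non-specific binding was defined with 10 μM MPEP.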

Row | Structure (SMILES) | % Inhibition of mGluR5 Receptor (pig) [^3H]-MPEP Bond at 10 μM [%]
1 | O=S(=O)(c1c(F)c(F)c(F)c(F)c1F)N(Cc1cccc(-c2cc(F)c3ncnc(NC4CC4)c3c2)c1)C1CC1 [Example 761, N-cyclopropyl-N-(3-(4-(cyclopropylamino)-8-fluoroquinazolin-6-yl)benzyl)-2,3,4,5,6-pentafluorobenzole sulfonamide] | 45
2 | O=C(c1ccno1)N(Cc1cc(-c2ccc3ncnc(NC4CC4)c3c2)ccc1Cl)C1CC1 [Example 762, N-(2-chloro-5-(4-(cyclopropylamino)quinazolin-6-yl)benzyl)-N-cyclopropyl isoxazole-5-carboxamide] | 91
3 | O=C(c1ccncc1)N(Cc1cc(-c2ccc3ncnc(NC4CC4)c3c2)ccc1Cl)C1CC1 [Example 763, N-(2-chloro-5-(4-(cyclopropylamino)quinazolin-6-yl)benzyl)-N-cyclopropyl isonicotinamide] | 86
4 | CS(=O)(=O)N(Cc1cc(-c2ccc3ncnc(NC4CC4)c3c2)ccc1Cl)C1CC1 [Example 764, N-(2-chloro-5-(4-(cyclopropylamino)quinazolin-6-yl)benzyl)-N-cyclopropyl methane sulfonamide] | 87
5 | O=C(c1cccnc1)N(Cc1cc(-c2ccc3ncnc(NC4CC4)c3c2)ccc1Cl)C1CC1 [Example 770, N-(2-chloro-5-(4-(cyclopropylamino)quinazolin-6-yl)benzyl)-N-cyclopropyl nicotinamide] | 84

same assay, conditions: 10 μM compound, 5 nM [3H]-MPEP, read-out: % Inhibition of mGluR5 Receptor (pig) [^3H]-MPEP Bond at 10 μM

Row | Structure (SMILES) | inhibition at 10 µM [%]
6 | O=S(=O)(c1cccs1)N(Cc1cc(-c2ccc3ncnc(NC4CC4)c3c2)ccc1Cl)C1CC1 [Example 734, N-(2-chloro-5-(4-(cyclopropylamino)quinazolin-6-yl)benzyl)-N-cyclopropylthiophene-2-sulfonamide] | 91
7 | O=C(c1ccc(C(F)(F)F)cc1F)N(Cc1cc(-c2ccc3ncnc(NC4CC4)c3c2)ccn1)C1CC1 [Example 735, N-cyclopropyl-N-((4-(4-(cyclopropylamino)quinazolin-6-yl)pyridin-2-yl)methyl)-2-fluoro-4-(trifluoromethyl)benzamide] | 72
8 | O=C(c1ccncc1)N(Cc1cccc(-c2cc(F)c3ncnc(NC4CC4)c3c2)c1)C1CC1 [Example 736, N-cyclopropyl-N-(3-(4-(cyclopropylamino)-8-fluoroquinazolin-6-yl)benzyl)isonicotinamide] | 91
9 | Cc1cc2ncnc(NC3CC3)c2cc1-c1cccc(CN(C2CC2)S(=O)(=O)c2cccs2)c1 [Example 737, N-cyclopropyl-N-(3-(4-(cyclopropylamino)-7-methylquinazolin-6-yl)benzyl)thiophene-2-sulfonamide] | 74
10 | O=C(c1ccc(C(F)(F)F)cc1F)N(Cc1cccc(-c2cc(F)c3ncnc(NC4CC4)c3c2)c1)C1CC1 [Example 738, N-cyclopropyl-N-(3-(4-(cyclopropylamino)-8-fluoroquinazolin-6-yl)benzyl)-2-fluoro-4-(trifluoromethyl)benzamide] | 90
11 | CN(C)CC(=O)N(Cc1cc(-c2ccc3ncnc(NC4CC4)c3c2)ccn1)C1CC1 [Example 739, N-cyclopropyl-N-((4-(4-(cyclopropylamino)quinazolin-6-yl)pyridin-2-yl)methyl)-2-(dimethylamino)acetamide] | 47
12 | O=C(c1ccccc1C(F)(F)F)N(Cc1cc(-c2ccc3ncnc(NC4CC4)c3c2)ccc1Cl)C1CC1 [Example 740, N-(2-chloro-5-(4-(cyclopropylamino)quinazolin-6-yl)benzyl)-N-cyclopropyl-2-(trifluoromethyl)benzamide] | 85
13 | O=C(C1CCCCC1)N(Cc1cc(-c2ccc3ncnc(NC4CC4)c3c2)ccc1Cl)C1CC1 [Example 741, N-(2-chloro-5-(4-(cyclopropylamino)quinazolin-6-yl)benzyl)-N-cyclopropylcyclohexane carboxamide] | 37
14 | O=S(=O)(c1cccc2cccnc12)N(Cc1cc(-c2ccc3ncnc(NC4CC4)c3c2)ccc1Cl)C1CC1 [Example 742, N-(2-chloro-5-(4-(cyclopropylamino)quinazolin-6-yl)benzyl)-N-cyclopropylquinoline-8-sulfonamide] | 69
15 | COCC(=O)N(Cc1cccc(-c2cc(F)c3ncnc(NC4CC4)c3c2)c1)C1CC1 [Example 744, N-cyclopropyl-N-(3-(4-(cyclopropylamino)-8-fluoroquinazolin-6-yl)benzyl)-2-methoxyacetamide] | 90
16 | Cc1cc2ncnc(NC3CC3)c2cc1-c1cccc(CN(C(=O)c2ccno2)C2CC2)c1 [Example 745, N-cyclopropyl-N-(3-(4-(cyclopropylamino)-7-methylquinazolin-6-yl)benzyl)isoxazole-5-carboxamide] | 52
17 | O=C(c1ccco1)N(Cc1cc(-c2ccc3ncnc(NC4CC4)c3c2)ccc1Cl)C1CC1 [Example 746, N-(2-chloro-5-(4-(cyclopropylamino)quinazolin-6-yl)benzyl)-N-cyclopropylfuran-2-carboxamide] | 93
18 | O=C(c1cc(Cl)cc(Cl)c1)N(Cc1cc(-c2ccc3ncnc(NC4CC4)c3c2)ccc1Cl)C1CC1 [Example 747, 3,5-dichloro-N-(2-chloro-5-(4-(cyclopropylamino)quinazolin-6-yl)benzyl)-N-cyclopropylbenzamide] | 52
19 | O=C(Cc1ccccc1)N(Cc1cc(-c2ccc3ncnc(NC4CC4)c3c2)ccc1Cl)C1CC1 [Example 748, N-(2-chloro-5-(4-(cyclopropylamino)quinazolin-6-yl)benzyl)-N-cyclopropyl-2-phenylacetamide] | 66
20 | O=C(c1ccccc1C(F)(F)F)N(Cc1cc(-c2ccc3ncnc(NC4CC4)c3c2)ccn1)C1CC1 [Example 749, N-cyclopropyl-N-((4-(4-(cyclopropylamino)quinazolin-6-yl)pyridin-2-yl)methyl)-2-(trifluoromethyl)benzamide] | 65
21 | O=C(c1cc(Cl)cc(Cl)c1)N(Cc1cc(-c2ccc3ncnc(NC4CC4)c3c2)ccn1)C1CC1 [Example 750, 3,5-dichloro-N-cyclopropyl-N-((4-(4-(cyclopropylamino)quinazolin-6-yl)pyridin-2-yl)methyl)benzamide] | 42
22 | CN(C)CC(=O)N(Cc1cccc(-c2cc(F)c3ncnc(NC4CC4)c3c2)c1)C1CC1 [Example 751, N-cyclopropyl-N-(3-(4-(cyclopropylamino)-8-fluoroquinazolin-6-yl)benzyl)-2-(dimethylamino)acetamide] | 53
23 | O=C(c1c(F)c(F)c(F)c(F)c1F)N(Cc1cccc(-c2cc(F)c3ncnc(NC4CC4)c3c2)c1)C1CC1 [Example 752, N-cyclopropyl-N-(3-(4-(cyclopropylamino)-8-fluoroquinazolin-6-yl)benzyl)-2,3,4,5,6-pentafluorobenzamide] | 62
24 | O=C(c1cccs1)N(Cc1cc(-c2ccc3ncnc(NC4CC4)c3c2)ccc1Cl)C1CC1 [Example 754, N-(2-chloro-5-(4-(cyclopropylamino)quinazolin-6-yl)benzyl)-N-cyclopropylthiophene-2-carboxamide] | 95
25 | O=C(c1ccccn1)N(Cc1cc(-c2ccc3ncnc(NC4CC4)c3c2)ccc1Cl)C1CC1 [Example 755, N-(2-chloro-5-(4-(cyclopropylamino)quinazolin-6-yl)benzyl)-N-cyclopropylpicolinamide] | 78
26 | O=C(CCc1ccccc1)N(Cc1cc(-c2ccc3ncnc(NC4CC4)c3c2)ccc1Cl)C1CC1 [Example 756, N-(2-chloro-5-(4-(cyclopropylamino)quinazolin-6-yl)benzyl)-N-cyclopropyl-3-phenylpropanamide] | 69
27 | Cc1nc(C(=O)N(Cc2cccc(-c3cc4c(NC5CC5)ncnc4cc3C)c2)C2CC2)cs1 [Example 759, N-cyclopropyl-N-(3-(4-(cyclopropylamino)-7-methylquinazolin-6-yl)benzyl)-2-methylthiazole-4-carboxamide] | 83
28 | Cc1cc(C(=O)N(Cc2cccc(-c3cc(F)c4ncnc(NC5CC5)c4c3)c2)C2CC2)n(C)n1 [Example 760, N-cyclopropyl-N-(3-(4-(cyclopropylamino)-8-fluoroquinazolin-6-yl)benzyl)-1,3-dimethyl-1H-pyrazole-5-carboxamide] | 93
29 | Cc1cc2ncnc(NC3CC3)c2cc1-c1cccc(CN(C(=O)c2c(F)c(F)c(F)c(F)c2F)C2CC2)c1 [Example 768, N-cyclopropyl-N-(3-(4-(cyclopropylamino)-7-methylquinazolin-6-yl)benzyl)-2,3,4,5,6-pentafluorobenzamide] | 88
30 | Cc1nc(C(=O)N(Cc2cc(-c3ccc4ncnc(NC5CC5)c4c3)ccc2Cl)C2CC2)cs1 [Example 769, N-(2-chloro-5-(4-(cyclopropylamino)quinazolin-6-yl)benzyl)-N-cyclopropyl-2-methylthiazole-4-carboxamide] | 83
31 | O=S(=O)(Cc1ccccc1)N(Cc1cc(-c2ccc3ncnc(NC4CC4)c3c2)ccc1Cl)C1CC1 [Example 771, N-(2-chloro-5-(4-(cyclopropylamino)quinazolin-6-yl)benzyl)-N-cyclopropyl-1-phenylmethane sulfonamide] | 80
32 | CC(=O)N(Cc1cc(-c2ccc3ncnc(NC4CC4)c3c2)ccn1)C1CC1 [Example 773, N-cyclopropyl-N-((4-(4-(cyclopropylamino)quinazolin-6-yl)pyridin-2-yl)methyl)acetamide] | 74
33 | O=C(c1ccno1)N(Cc1cccc(-c2cc(F)c3ncnc(NC4CC4)c3c2)c1)C1CC1 [Example 775, N-cyclopropyl-N-(3-(4-(cyclopropylamino)-8-fluoroquinazolin-6-yl)benzyl)isoxazole-5-carboxamide] | 76
